Test results: ChEMBL document CHEMBL1156189, “Structure-function relationships of estrogenic triphenylethylenes related to endoxifen and 4-hydroxytamoxifen” (J Med Chem, 2010)
pEC50: −log10 of the molar value. The source made the active and inactive calls. The calls are words filed in the database; no cut-off is given here.

What was measured:
[1] = (§1) Estrogenic activity in human ERalpha expressing MCF7:WS8 cells assessed as stimulation of cell proliferation after 7 days; format: functional; settings: for EC50: mcf7:ws8
[2] = Antiestrogenic activity in human ERalpha expressing MCF7:WS8 cells assessed as inhibition of estradiol-induced proliferation at 1 uM after 7 days; format: functional, cell-based
MCF7:WS8 = assay: as §1; format: functional

**Q.** Which EC50 [1] does the source give for `CC/C(=C(\c1ccccc1)c1ccc(O)cc1)c1ccc(O)cc1` here?
**A.** Its EC50 is 1 10^-1nmol.

**Q.** For `CC/C(=C(/c1ccccc1)c1ccc(O)cc1)c1ccc(O)cc1`, which EC50 [1] is on record?
**A.** The EC50 was 1 10^-1nmol.

**Q.** With `CCC(=C(c1ccc(O)cc1)c1ccc(O)cc1)c1ccc(O)cc1` as the compound, how does the EC50 [1] read?
**A.** The EC50 was 1.5 10^-1nmol.

**Q.** What about the inhibition [2] of the same compound?
**A.** Its inhibition is “inactive”.

**Q.** With `CCOc1ccc(/C(=C(/CC)c2ccc(O)cc2)c2ccc(O)cc2)cc1` as the compound, how does the pEC50 ([1]; Homo sapiens, MCF7:WS8, 168 h, read-out: EC50) read?
**A.** The pEC50 was 8.40.

**Q.** What about the inhibition [2] of the same compound?
**A.** Its inhibition is “inactive”.

**Q.** With `CC/C(=C(\c1ccc(O)cc1)c1ccc(OCCNC)cc1)c1ccccc1` as the compound, how does the Activity (MCF7:WS8) read?
**A.** Its Activity is “inactive”.

**Q.** What about the inhibition [2] of the same compound?
**A.** The inhibition was “Active”.

**Q.** For `C[C@]12CC[C@@H]3c4ccc(O)cc4CC[C@H]3[C@@H]1CC[C@@H]2O` [ESTRADIOL], which EC50 [1] is on record?
**A.** Its EC50 is 0.001 nM.

**Q.** With `CCC(=C(c1ccc(O)cc1)c1ccc(O)cc1)c1ccccc1` as the compound, how does the EC50 [1] read?
**A.** The EC50 was 5 10^-2nmol.

**Q.** Which results are given for `CCC(=C(c1ccc(O)cc1)c1ccc(OCCN(C)C)cc1)c1ccccc1`?
**A.** Activity (MCF7:WS8): inactive; inhibition [2]: Active

**Q.** Which Activity (MCF7:WS8) does the source give for `CC/C(=C(/c1ccc(O)cc1)c1ccc(OCCN(C)C)cc1)c1ccccc1` here?
**A.** The Activity was “inactive”.
